Experiment [1] concerns myocardial infarction (Fisher-344 rats). The experiment can be described thus: Serial echocardiography after MI, compared to JI-38 (Example 15, Table 15). The format is in vivo, rat. Set-up: key to LVEDD: Left Ventricular End Diastolic Diameter / LVESD: Left Ventricular End Systolic Diameter / VD: Ventricular Diastole / VS: Ventricular Systole / EF: Ejection Fraction / FS: Fraction Shortening: ↓: downward arrow denotes lower than JI-38; ↑: upward arrow denotes greater than JI-38; =denotes same as JI-38; ⬇⬇: double arrow denotes greater effect; ⬆⬆: double arrow denotes greater effect. An outline of the steps: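 Female 6-month-old Fisher-344 rats with permanent left coronary artery ligation received placebo, JI-38 or GHRH agonists subcutaneously twice daily from 2 h post-surgery (10 per group). Under 2% isoflurane, M-mode LVEDD, LVESD and FS plus long-axis EF were measured at baseline, 2 days, 1, 2 and 4 weeks.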

Experiment [2] has the same test system. The experiment in a line: Echocardiography in rat myocardial infarction model, treatment from 4 weeks post-MI (Example 13). The format is in vivo. The settings on record: mean ± SEM. Here is the method: Myocardial infarction (MI) was induced by permanent ligation of the left coronary artery in female 6-month-old Fisher-344 rats. Animals were randomly assigned to receive placebo (DMSO+propylene glycol) or one of the GHRH-agonists (JI-38, MR-356/P-20356, MR-409/P-27409, all 50 μg/kg), starting 4 weeks post-MI. All treatment was given subcutaneously twice daily for 4 weeks.
Echocardiographic measurements were obtained at baseline, 2 days, 1, 2 and 4 weeks. Echocardiographic assessments were performed in anesthetized rats (2% isoflurane inhalation) using a Vevo-770 echocardiogram (Visual Sonics Inc., Toronto, Ontario, Canada) equipped with a 17.5-MHz transducer. Cardiac dimensions: LV end diastolic (LVEDD), end systolic (LVESD) diameters and fractional shortening (FS) were recorded from M-mode images using averaged measurements from 3 to 5 consecutive cardiac cycles according to the American Society of Echocardiography. Ejection fraction (EF) was calculated from bi-dimensional long-axis parasternal views taken through the infarcted area. All images were analyzed using Vevo 770 3.0.0 software (Visual Sonics Inc., Toronto, Ontario, Canada).

In another experiment the target is T1, GHRH receptor (Homo sapiens, UniProt Q02643).
T1 sequence (Q02643 23-423): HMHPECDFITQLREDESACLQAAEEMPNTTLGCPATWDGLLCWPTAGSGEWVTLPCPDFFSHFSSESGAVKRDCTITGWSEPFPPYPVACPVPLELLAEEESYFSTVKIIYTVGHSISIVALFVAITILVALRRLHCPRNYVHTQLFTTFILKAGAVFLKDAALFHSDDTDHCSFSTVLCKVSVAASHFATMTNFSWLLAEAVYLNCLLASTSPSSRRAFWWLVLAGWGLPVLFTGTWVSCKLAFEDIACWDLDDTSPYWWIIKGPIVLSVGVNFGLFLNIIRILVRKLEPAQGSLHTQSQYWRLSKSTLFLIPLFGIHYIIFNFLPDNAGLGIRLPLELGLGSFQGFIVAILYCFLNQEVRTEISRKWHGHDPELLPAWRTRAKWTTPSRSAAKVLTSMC
The experiment in a line: Receptor binding in vitro, 125I-labeled [His1,Nle27]-hGHRH(1-32)NH2, membrane receptors of human anterior pituitary cells (Table 14).

A further experiment deals with GH release. The experiment can be described thus: GH releasing potency in vivo, intravenous administration (Example 14, Table 13). Set-up: species or system rat. The settings on record: i.v. An outline of the steps: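 Potency is expressed relative to GHRH(1-29)NH2 and JI-38 (each = 1), via equivalent GHRH(1-29)NH2 dose read from a standard curve. Peptides in 5% mannitol given i.v. or s.c. to anaesthetised male Sprague-Dawley rats (200-250 g); serum GH measured by ELISA at selected times.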

“And” between values parts separate entries of the source, which are not always exact repeats. Equal entries are not always repeated. Non-standard residues stand in square brackets, D forms with d. Residues, ends and D or L forms follow the SMILES beside them. *: point of attachment. NMeY = CN[C@@H](Cc1ccc(O)cc1)C(=O)O; Agmatine = N=C(N)NCCCCN*; Nle = CCCC[C@H](N)C(=O)O; Orn = NCCC[C@H](N)C(=O)O; Abu = CC[C@H](N)C(=O)O

Excerpt for GHRH receptor: Normal human pituitary was purchased from the National Hormone and Peptide Program (UCLA Medical Center, Torrance, Calif.).

Regarding `CCCC[C@H](NC(=O)[C@@H](NC(=O)[C@H](CC(=O)O)NC(=O)[C@H](CCC(N)=O)NC(=O)[C@H](CC(C)C)NC(=O)[C@H](CC(C)C)NC(=O)[C@H](CCCN)NC(=O)[C@H](CCCNC(=N)N)NC(=O)[C@H](C)NC(=O)[C@H](CO)NC(=O)[C@H](CC(C)C)NC(=O)[C@H](CCC(N)=O)NC(=O)[C@H](CC)NC(=O)[C@H](CC(C)C)NC(=O)[C@@H](NC(=O)[C@H](CCCN)NC(=O)[C@H](CCCNC(=N)N)NC(=O)[C@H](Cc1ccc(O)cc1)NC(=O)[C@H](CO)NC(=O)[C@H](CCC(N)=O)NC(=O)[C@@H](NC(=O)[C@H](Cc1ccccc1)NC(=O)[C@@H](NC(=O)[C@H](C)NC(=O)[C@H](CC(=O)O)NC(=O)[C@H](C)NC(=O)[C@H](Cc1ccc(O)cc1)NC)[C@@H](C)CC)[C@@H](C)O)C(C)C)[C@@H](C)CC)C(=O)N[C@@H](CC(=O)O)C(=O)NCCCCNC(=N)N` [Peptide P-20356, [N—Me-Tyr^1, Gln^8, Orn^12, Abu^15, Orn^21, Nle^27, Asp^28, Agm^29]hGHRH(1-29) NH2] (H-[NMeY]ADAIFTQSYR[Orn]VL[Abu]QLSAR[Orn]LLQDI[Nle]D-Agmatine), in experiment [1] (after MI), the “cardiac dimensions (LVEDD and LVESD)” value is “reduced cardiac dimensions”; the “cardiac performance (EF and FS)” value is “substantial improvement on cardiac performance”. Further, in experiment [1] (in comparison to JI-38), the “EF: Ejection Fraction” value is “=”, the “FS: Fraction Shortening” value is “⬆⬆”, the “LVEDD: Left Ventricular End Diastolic Diameter” value is “⬇⬇” and the “LVESD: Left Ventricular End Systolic Diameter” value is “⬇⬇”. In experiment [1] (in comparison to JI-38), the “VD: Ventricular Diastole” value is given as “=” and the “VS: Ventricular Systole” value is given as “=”. Moreover, in experiment [2] (50 μg/kg s.c. twice daily for 4 weeks), the “EF (4 Weeks)” value worked out at 51 ± 2.7 %. For the same compound, in experiment [2] (ejection fraction at baseline), the “EF (Baseline)” value is given as 88 ± 0.6%. In addition, the “Relative affinity (Binding potency) compared to JI-38” value at GHRH receptor (JI-38 = 1, listed as MR-356) was 2.7 and 2.69. Further, the “GHRH receptor binding affinity (in words)” value on GHRH receptor (compared to JI-38) is “improved receptor binding affinity”. At GHRH receptor (hGHRH(1-29)NH2 = 1), the “Relative affinity (Binding potency) compared to hGHRH(1-29)” value is 7.50. Besides, the “Relative potency, 5 min” value in the experiment on GH release (5 min, JI-38 = 1) was 1.17. Further, in the experiment on GH release (15 min, JI-38 = 1), the “Relative potency, 15 min” value amounted to 1.26. For the same compound, in the experiment on GH release (dose 1 μg/kg, 0 min, mean ± SEM), the “Serum GH level at selected time after injection (ng/ml), 0 min” value amounted to 37.8 ± 5.7 ng/mL. In the experiment on GH release (dose 1 μg/kg, 5 min, mean ± SEM), the “Serum GH level at selected time after injection (ng/ml), 5 min” value amounted to 632 ± 110 ng/mL. Also, the “Serum GH level at selected time after injection (ng/ml), 15 min” value in the experiment with GH release (dose 1 μg/kg, 15 min, mean ± SEM) is 250 ± 58.1 ng/mL.

The values above are taken from US10555987B2, “GHRH agonists for the treatment of ischemic disorders” (UNIVERSITY OF MIAMI, priority 2012, dated 2020).
